Experimental data reported in patent US5686417A, “Peptide T and related peptides in the treatment of HTLV-1 myelopathy and multiple sclerosis” (Reed MacFadden, Ltd., priority 1995, dated 1997).

Tests used:
[1] = tested on: multiple sclerosis patients; assay: case treatments of multiple sclerosis (Examples 2-5); format: in vivo, human
Description: A person was diagnosed as having MS after presenting with weakness, loss of balance, double vision, and paraesthesia in their right arm. They were treated with prednisone and later with physiotherapy. […] Tone was increased in both lower limbs and they had bilateral ankle clonus. Deep tendon reflexes were 2+ in the arms, 3+ in both knees and ankles and the planter responses were extensor.
They were started on 10 milligram subcutaneous injections of Peptide T daily. […] Their frequency of nocturia was reduced, fine motor control improved, stuttering decreased, their legs were less spastic and they could stand with minimal support.
A person was diagnosed with optic neuritis secondary to multiple sclerosis after presenting with numbness, impaired motor function, and blurred vision (20/300 bilaterally). Their somatic neurological examination was within normal limits. Minor episodes of numbness and impaired speech, balance and co-ordination had occurred over 6 months, as well as headache and loss of vision.
Peptide T therapy was started.
A person with their first multiple sclerosis episode had optic neuritis and complete blindness in the right eye for 2 weeks, numbness in their right leg and then both legs. Their symptoms worsened. […] They had worsening of their ataxia and blurred vision. They were given prednisone 80 milligrams per day. […] The patient complained of oscillopsia. […] Findings were typical of demyelination consistent with MS. […] The tone was increased in their lower limbs and they had non-sustained ankle clonus bilaterally. Their knee jerk was increased on the right compared to the left. Plantar responses were both upgoing. They had decreased position, vibration, light touch and cold sensation in the feet compared to the hands.
About 2 months later the patient was started on Peptide T 10 milligrams subcutaneously daily. […] They experienced improved feelings in their fingers, fine movements of their hands and improved cognitive function.
A person with a history of dizziness, ataxia, episodes of vertigo, impairment of motor function and generalized weakness of the legs was treated with dilantin and admitted to hospital. […] They were reassessed about 2 years later for episodes of dizziness, and complaints of leg spasms. […] Planter response was downgoing and they had upwards gaze vertical nystagmus as previously noted.

[2] = in vivo; cited from earlier work
protein kinase C = conditions: cited from earlier work
[3] = tested on: mouse fetal hippocampal neurons; conditions: mouse hippocampal neuronal culture; cited from earlier work
rat spinal cord = conditions: spinal administration; cited from earlier work

NCC(CC(=O)O)c1ccc(Cl)cc1 (centres unmarked) [Lioresal (Baclofen), Baclofen]
response to earlier treatment ([1]; Example 2, before Peptide T): some improvement

C[C@@H](N)C(=O)N[C@@H](CO)C(=O)N[C@H](C(=O)N[C@H](C(=O)N[C@H](C(=O)N[C@@H](CC(N)=O)C(=O)N[C@@H](Cc1ccc(O)cc1)C(=O)N[C@H](C(N)=O)[C@@H](C)O)[C@@H](C)O)[C@@H](C)O)[C@@H](C)O [Peptide T, D-Ala-Ser-Thr-Thr-Thr-Asn-Tyr-Thr- Amide]
exit from the brain [2]: diffusion only

C[C@]12C=CC(=O)C=C1CC[C@@H]1[C@@H]2C(=O)C[C@@]2(C)[C@H]1CC[C@]2(O)C(=O)CO [prednisone]
symptomatic response ([1]; Example 4, 150 mg daily, while off Peptide T): minimal symptomatic improvement | ataxia and some visual problems ([1]; Example 4, 80 milligrams per day): seemed to improve | response to treatment ([1]; Example 4, first course, dose not stated): some improvement

vasoactive intestinal peptide [VIP]
cellular effects via protein kinase C (protein kinase C): regulation of protein kinase C | effect on gp120-induced neurotoxicity [3]: completely eliminated | analgesia, fail-flick latency test and tail-shock induced vocalization test (rat spinal cord): produced analgesia
